Key:
Stability in plasma, rat = assay type: in vitro ADME, rats
Procedure: The unbound fractions of IDP-73152 in various matrices were measured according to the manufacturer's instructions for the rapid equilibrium dialysis (RED) device (ThermoFisher Scientific, Waltham, MA, USA). Briefly, IDP-73152 was added to the plasma or the microsomal/hepatocyte incubation buffer from various species (i.e., mouse, rat, dog, and human for microsomal incubation; rat for hepatocyte incubation) to obtain final concentrations of the compound at 0.3, 1, and 3 μM. After the membrane insert was placed in the RED plate, the solution containing IDP-73152 was added (400 μL) to the sample chamber, and the dialysis buffer (600 μL) was added to the buffer chamber. The RED plate was sealed with parafilm and then incubated at 37 °C in the orbital shaker (Lab Companion, Daejeon, Korea) at 100 rpm for 5 h. […] The IDP-73152 concentration in the buffer/sample chambers (i.e., CBuffer Chamber and CSample Chamber) was determined by an assay. Thus, the fraction unbound was defined as:(2) % Fraction unbound=(CBuffer Chamber/CSample Chamber)×100% When necessary, the stability of IDP-73152 in the matrix was also determined at 5 h. […] Accordingly, the kinetics of IDP-73152 instability were determined in the rat blood at a final concentration of 0.3 μM. […]

[1] = PBPK model prediction, rats
Text: In this study, the PBPK model involving ten tissues (i.e., adipose tissue, brain, heart, kidney, liver, lung, muscle, skin, spleen, and testis (Figure 2; see Appendix A for detailed mathematical descriptions)) was considered to be applicable for the description of IDP-73152 PK in rats, mice, dogs, and humans. Physiological variables were obtained from the literature; they are summarized in Supplementary Table S1.
In addition, from metabolic stability studies, it was evident that IDP-73152 was metabolically unstable in the incubations containing liver microsomes (from all species)/hepatocytes (from rats) and in the rat plasma. […] Accordingly, during model development, we initially assumed that IDP-73152 was entirely eliminated by the metabolism in the liver (namely, CLh) and in the blood (namely, CLblood) in rats: For other species (i.e., mice, dogs, and humans), the elimination was assumed to be primarily mediated by metabolism in the liver. From the results of in vitro metabolic stability studies, the hepatic clearance (CLh) in rats was estimated under the assumption that the well-stirred liver model was adequate for IDP-73152 [29]:(9) CLh=QLI×BP×fu,p×CLu,int,H/QLI×BP+fu,p×CLu,int,H, where QLI, and fu,p represent the liver blood flow and the unbound fraction of IDP-73152 in the plasma, respectively.
For the estimation of the volume of the distribution of IDP-73512 in rats, the steady-state volume of distribution (Vss) was calculated using the following equation [30]:(10) Vss=VP+Vrbc×EP+∑VT,i×KP,ss,i, where Vp, Vrbc, and VT,i are the volumes of plasma, red blood cells, and tissues, respectively. The erythrocyte-to-plasma partition coefficient (EP), is calculated by EP=1+(BP−1)/Hematocrit . The KP,ss for each tissue obtained from Equation (8) was applied for Equation (10). For the case of non-eliminating organs, the KP,ss was regarded as the tissue-to-plasma partition coefficient (KP) in PBPK equations (Appendix A). For the case of the liver—i.e., the eliminating organ—the KP,ss (KP,ss,LI) had to be corrected to account for the equilibrium being altered by the elimination. Thus, a PBPK-operative KP for liver (KP,LI) was calculated using the following equation [31]:(11) KP,LI=KP,ss,LI/(1−ER), where ER is the hepatic extraction ratio of the compound (i.e., CLh/(QLI·BP)). In this study, a compartmental absorption and transit (CAT) model consisting of stomach and five intestinal segments was considered for the description of the intestinal absorption kinetics of IDP-73152 in animals and humans. We assumed that the initial compartment denoted the stomach (Equation (12)), and the subsequent three compartments represented the small intestine and two additional compartments for the large intestine (i.e., a total of six compartments, with absorption occurring in the five intestinal compartments) (Equation (13)). […]
For the intestine, viz. i = 1~5:(13) dMi/dt=Kt,i−1×Mi−1−(Kt,i+ka,i)×Mi, where Ms is the amount of drug in the stomach; Mi is the amount of drug in the i-th intestinal segment; Ks, Kt,i, and ka,i are the rate constants of gastric emptying, intestinal transit, and the segmental absorption rate, respectively. […] The absorption rate constant in the intestinal segments in humans, ka,i,human, was assumed to be identical along the segments and calculated as follows: first, Peff was empirically estimated from the Caco-2 cell permeability (Papp):(14) LogPeff=0.4926×LogPapp−0.1454 […]

CC(C)(C)[C@H](NC(=O)[C@H](CC1CCCC1)CN(O)C=O)C(=O)N1CCC(NCc2cc(F)c(F)cc2F)CC1 [IDP-73152]
stability in blood and plasma (Stability in plasma, rat; rat blood and plasma, preliminary study): unstable | percentage remaining in plasma at 5 h (Stability in plasma, rat; rats plasma, 5 h, 37 °C): 65.3 ± 13.7% | AUC ratio (Predicted AUCinf/Observed AUCinf) ([1]; intravenous 2.5 mg/kg): 1.09 | AUC ratio (Predicted AUCinf/Observed AUCinf) ([1]; intravenous 10 mg/kg): 1.14 | Cmax ratio without the scaling (SF) ([1]; oral): 2.36 | AUC ratio (Predicted AUCinf/Observed AUCinf) ([1]; oral 20 mg/kg): 1.03 | Cmax ratio (Predicted Cmax/Observed Cmax) ([1]; oral 20 mg/kg): 1.02

Reference: PMC9227536, “Prediction of Pharmacokinetics of IDP-73152 in Humans Using Physiologically-Based Pharmacokinetics” (Pharmaceutics, 2022)
